Data taken from the NIST ThermoML archive (doi:10.1021/je700339f).
Numbers after ± are expanded uncertainties.

Assay: xn = mol fraction of the nth substance listed
Details: 298.15 K, Liquid

ClCCCl [1,2-dichloroethane] + CN(C)C=O
mass density [kg/m3]
Details | x2 = 0.0805 | x2 = 0.1978 | x2 = 0.302 | x2 = 0.397 | x2 = 0.4988 | x2 = 0.6023 | x2 = 0.7054 | x2 = 0.8005 | x2 = 0.9071
5000 kPa | – | – | 1159.1 ± 6.1 | 1130.4 ± 6.1 | 1099.5 ± 6.1 | 1068.2 ± 6.1 | 1037.1 ± 6 | 1008.5 ± 6.1 | 975.9 ± 6.1
5500 kPa | 1226.3 ± 6.1 | 1191 ± 6.1 | 1159.5 ± 6.1 | 1130.9 ± 6.1 | 1099.8 ± 6.1 | 1068.5 ± 6.1 | 1037.4 ± 6 | 1008.9 ± 6.1 | 976.2 ± 6.1
6000 kPa | 1226.7 ± 6.1 | 1191.5 ± 6.1 | 1159.9 ± 6.1 | 1131.4 ± 6.1 | 1100.2 ± 6.1 | 1068.8 ± 6.1 | 1037.7 ± 6 | 1009.2 ± 6.1 | 976.5 ± 6.1
6500 kPa | 1227.1 ± 6.1 | 1191.9 ± 6.1 | 1160.3 ± 6.1 | 1131.6 ± 6.1 | 1100.6 ± 6.1 | 1069.3 ± 6.1 | 1038.1 ± 6 | 1009.5 ± 6.1 | 976.8 ± 6.1
7000 kPa | 1227.6 ± 6.1 | 1192.3 ± 6.1 | 1160.8 ± 6.1 | 1132.1 ± 6.1 | 1101 ± 6.1 | 1069.6 ± 6.1 | 1038.5 ± 6 | 1009.8 ± 6.1 | 977.1 ± 6.1
7500 kPa | 1228 ± 6.1 | 1192.7 ± 6.1 | 1161.2 ± 6.1 | 1132.5 ± 6.1 | 1101.4 ± 6.1 | 1070 ± 6.1 | 1038.8 ± 6 | 1010.2 ± 6.1 | 977.4 ± 6.2
8000 kPa | 1228.5 ± 6.1 | 1193.2 ± 6.1 | 1161.6 ± 6.1 | 1132.8 ± 6.1 | 1101.8 ± 6.1 | 1070.3 ± 6.1 | 1039.2 ± 6 | 1010.5 ± 6.1 | 977.8 ± 6.1
8500 kPa | 1228.9 ± 6.1 | 1193.7 ± 6.1 | 1161.9 ± 6.1 | 1133.2 ± 6.1 | 1102.1 ± 6.1 | 1070.7 ± 6.1 | 1039.5 ± 6.1 | 1010.8 ± 6.1 | 978.2 ± 6.1
9000 kPa | 1229.3 ± 6.1 | 1194 ± 6.1 | 1162.4 ± 6.1 | 1133.7 ± 6.1 | 1102.5 ± 6.1 | 1071.1 ± 6.1 | 1039.9 ± 6.1 | 1011.2 ± 6.1 | 978.4 ± 6.2
9500 kPa | 1229.8 ± 6.1 | 1194.5 ± 6.1 | 1162.8 ± 6.1 | 1134 ± 6.1 | 1102.9 ± 6.1 | 1071.4 ± 6.1 | 1040.2 ± 6.1 | 1011.5 ± 6.1 | 978.7 ± 6.2
9900 kPa | – | – | – | – | – | – | – | 1011.8 ± 6.1 | –
10000 kPa | 1230.4 ± 6.1 | 1195 ± 6.1 | 1163.2 ± 6.1 | – | – | – | – | – | –
